The subject of test [1] is level of uric acid in the plasma. As to the kind of experiment: Hypouricemic effect (oxonic acid-induced hyperuricemic beagle dogs). The class given is in vivo. The settings on record: hyperuricemic beagle dog, oral, 10 mg/kg, 8 hours after administration. The protocol:
Potassium oxonate (50 mg/kg) was subcutaneously administrated before and 4 hours after compound administration. After the blood was collected from the cephalic vein at 8 hours after administration, the plasma was separated. The level of uric acid in the plasma sample was measured by LC-MS/MS method and the percentage of hypouricemic effect was determined by the following expression: Percentage of hypouricemic effect (%)=(Level of uric acid of the control animal−Level of uric acid of the test compound-administered animal)×100/Level of uric acid of the control animal.

For test [2], the target named is T1, oxidase-type xanthine oxidoreductase (from buttermilk) (Bos taurus, UniProt P80457).
T1 construct: purchased Calbiochem Novabiochem Corp; host or cells: buttermilk (natural source)
As to the kind of experiment: xanthine oxidase inhibitory activity (change of absorbance at 290 nm). The class given is biochemical. Particulars: xanthine substrate, read-out: Inhibitor Activity. The protocol: Test compound was dissolved in DMSO (manufactured by Sigma Co.) to prepare a 20 mM solution. The solution was adjusted to an optimal concentration and used for the testing.
This evaluation was carried out by measuring oxidase-type xanthine oxidoreductase activity. Concretely, a xanthine (manufactured by Sigma Co.) solution was prepared at 10 mM using a 20 mM sodium hydroxide solution and then mixed with 100 mM phosphate buffer to adjusted to 30 μM. 75 μL of the solution was added to each well of the 96-well plate. The test compound diluted with DMSO at 100 times of a final concentration was added to each well at 1.5 μL per well. […] Immediately after mixing, the change of absorbance at 290 nm was measured for 5 minutes. The enzyme activity of DMSO solution without test compound was used as 100% control, and the inhibitory rate of the test compounds was calculated. Fifty percent inhibitory concentration of the test compounds on the oxidase-type xanthine oxidoreductase activity was calculated by fitting to the dose-response curve.

Our source for the hypouricemic effect and IC50 values is US9388174B2, “Azole benzene derivative” (TEIJIN PHARMA LIMITED, priority 2013, dated 2016).

T1 sequence (P80457 whole entry): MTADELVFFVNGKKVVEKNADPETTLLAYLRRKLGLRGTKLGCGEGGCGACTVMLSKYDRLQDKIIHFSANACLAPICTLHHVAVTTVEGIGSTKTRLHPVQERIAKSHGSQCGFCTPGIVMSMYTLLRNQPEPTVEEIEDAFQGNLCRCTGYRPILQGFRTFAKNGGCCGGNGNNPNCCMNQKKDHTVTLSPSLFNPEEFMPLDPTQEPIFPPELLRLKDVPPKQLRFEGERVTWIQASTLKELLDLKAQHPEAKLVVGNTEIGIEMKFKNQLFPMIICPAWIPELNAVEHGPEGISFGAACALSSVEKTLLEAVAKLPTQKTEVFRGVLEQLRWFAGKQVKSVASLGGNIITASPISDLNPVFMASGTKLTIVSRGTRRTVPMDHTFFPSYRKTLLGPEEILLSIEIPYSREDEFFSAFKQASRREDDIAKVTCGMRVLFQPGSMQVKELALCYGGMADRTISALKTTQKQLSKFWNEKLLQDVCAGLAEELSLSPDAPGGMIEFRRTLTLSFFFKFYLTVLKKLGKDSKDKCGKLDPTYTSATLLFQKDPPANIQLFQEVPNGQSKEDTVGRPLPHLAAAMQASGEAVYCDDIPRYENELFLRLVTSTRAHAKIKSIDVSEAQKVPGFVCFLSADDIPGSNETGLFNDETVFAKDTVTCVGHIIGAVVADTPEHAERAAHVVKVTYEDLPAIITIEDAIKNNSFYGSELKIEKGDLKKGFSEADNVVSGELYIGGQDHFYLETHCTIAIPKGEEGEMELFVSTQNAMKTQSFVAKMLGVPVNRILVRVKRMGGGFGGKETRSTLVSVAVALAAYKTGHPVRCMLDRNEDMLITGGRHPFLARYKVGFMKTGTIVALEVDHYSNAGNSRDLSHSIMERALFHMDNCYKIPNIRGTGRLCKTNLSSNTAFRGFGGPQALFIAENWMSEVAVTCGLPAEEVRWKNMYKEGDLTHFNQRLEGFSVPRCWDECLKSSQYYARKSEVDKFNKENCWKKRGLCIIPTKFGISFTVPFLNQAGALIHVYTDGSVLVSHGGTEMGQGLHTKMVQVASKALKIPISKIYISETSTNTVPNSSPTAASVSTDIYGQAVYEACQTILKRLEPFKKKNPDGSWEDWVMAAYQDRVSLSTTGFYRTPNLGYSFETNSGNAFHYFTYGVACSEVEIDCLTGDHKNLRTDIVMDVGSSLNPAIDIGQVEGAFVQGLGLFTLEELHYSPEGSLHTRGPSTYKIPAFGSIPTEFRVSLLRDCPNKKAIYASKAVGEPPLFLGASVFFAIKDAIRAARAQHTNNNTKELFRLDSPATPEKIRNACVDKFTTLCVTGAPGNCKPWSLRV

As for `Cc1nc(-c2ccc(OCC(C)C)c(-n3cnnn3)c2)sc1C(=O)O` [Compound No. 25, 4-methyl-2-[4-(2-methylpropoxy)-3-(1H-1,2,3,4-tetrazol-1-yl)phenyl]-1,3-thiazole-5-carboxylic acid], the hypouricemic effect result in test [1] is “showed a hypouricemic effect”.
As to `Cc1nc(-c2ccc(OCC(C)C)c(-n3ncnc3C)c2)sc1C(=O)O` [compound 14, 4-methyl-2-[3-(5-methyl-1H-1,2,4-triazol-1-yl)-4-(2-methylpropoxy)phenyl]-1,3-thiazole-5-carboxylic acid], in test [2], the IC50 fell in the range of 1 to 5 nM.
The same measure, in the same setting: for `Cc1nc(-c2ccc(SCC(C)C)c(-n3cnnn3)c2)sc1C(=O)O` [Compound No. 49, 4-methyl-2-{4-[(2-methylpropyl)sulfanyl]-3-(1H-1,2,3,4-tetrazol-1-yl)phenyl}-1,3-thiazole-5-carboxylic acid] the value was 1 to 5 nM; for `Cc1nc(-c2ccc(OCC(C)(C)C)c(-n3ccnn3)c2)sc1C(=O)O` [compound 18, 2-[4-(2,2-dimethylpropoxy)-3-(1H-1,2,3-triazol-1-yl)phenyl]-4-methyl-1,3-thiazole-5-carboxylic acid], 1 to 5 nM.
On the same count and under the same terms, for `Cc1cc(F)cc(Oc2ccc(-c3nc(C)c(C(=O)O)s3)cc2-n2cnnn2)c1` [compound 46, 2-[4-(3-fluoro-5-methylphenoxy)-3-(1H-1,2,3,4-tetrazol-1-yl)phenyl]-4-methyl-1,3-thiazole-5-carboxylic acid] the value was 1 to 5 nM; for `Cc1ccccc1Oc1ccc(-c2nc(C)c(C(=O)O)s2)cc1-n1cnnn1` [compound 44, 2-[4-(2-methylphenoxy)-3-(1H-1,2,3,4-tetrazol-1-yl)phenyl]-4-methyl-1,3-thiazole-5-carboxylic acid], 1 to 5 nM; for `Cc1cc(Oc2ccc(-c3nc(C)c(C(=O)O)s3)cc2-n2cnnn2)ccc1F` [compound 40, 2-[4-(4-fluoro-3-methylphenoxy)-3-(1H-1,2,3,4-tetrazol-1-yl)phenyl]-4-methyl-1,3-thiazole-5-carboxylic acid], 1 to 5 nM.
Still for that read-out and setting: for `Cc1nc(-c2ccc(Oc3ccc(F)cc3F)c(-n3cnnn3)c2)sc1C(=O)O` [compound 42, 2-[4-(2,4-difluorophenoxy)-3-(1H-1,2,3,4-tetrazol-1-yl)phenyl]-4-methyl-1,3-thiazole-5-carboxylic acid] the value was 1 to 5 nM; for `Cc1nc(-c2ccc(OCC(C)(C)C)c(-n3ccnc3)c2)sc1C(=O)O` [Compound No. 2, 2-[4-(2,2-dimethylpropoxy)-3-(1H-imidazol-1-yl)phenyl]-4-methyl-1,3-thiazole-5-carboxylic acid], 5 to 10 nM; for `Cc1nc(-c2ccc(OCC(C)C)c(-n3nnnc3C)c2)sc1C(=O)O` [compound 10, 4-methyl-2-[3-(5-methyl-1H-1,2,3,4-tetrazol-1-yl)-4-(2-methylpropoxy)phenyl]-1,3-thiazole-5-carboxylic acid], 5 to 10 nM.
In the case of `COc1ccccc1Oc1ccc(-c2nc(C)c(C(=O)O)s2)cc1-n1cnnn1` [compound 35, 2-[4-(2-methoxyphenoxy)-3-(1H-1,2,3,4-tetrazol-1-yl)phenyl]-4-methyl-1,3-thiazole-5-carboxylic acid], the IC50 in test [2] was in the range of 1 to 5 nM.
Still for that read-out and setting: for `Cc1nc(-c2ccc(OCC(C)C)c(-n3cnc4ccccc43)c2)sc1C(=O)O` [compound 11, 2-[3-(1H-1,3-benzodiazol-1-yl)-4-(2-methylpropoxy)phenyl]-4-methyl-1,3-thiazole-5-carboxylic acid] the value was 1 to 5 nM; for `CC(C)Oc1ccc(-c2ncc(C(=O)O)s2)cc1-n1cnnn1` [compound 31, 2-[4-(propan-2-yloxy)-3-(1H-1,2,3,4-tetrazol-1-yl)phenyl]-1,3 thiazole-5-carboxylic acid], 1 to 5 nM.
Same read-out and setting: for `Cc1nc(-c2ccc(Oc3cc(F)ccc3F)c(-n3cnnn3)c2)sc1C(=O)O` [compound 47, 2-[4-(2,5-difluorophenoxy)-3-(1H-1,2,3,4-tetrazol-1-yl)phenyl]-4-methyl-1,3-thiazole-5-carboxylic acid] the value was 1 to 5 nM; for `Cc1nc(-c2ccc(OCC(C)(C)C)c(-n3cnnn3)c2)sc1C(=O)O` [compound 26, 2-[4-(2,2-dimethylpropoxy)-3-(1H-1,2,3,4-tetrazol-1-yl)phenyl]-4-methyl-1,3-thiazole-5-carboxylic acid], 1 to 5 nM.
Still for that read-out and setting: for `Cc1cc(F)ccc1Oc1ccc(-c2nc(C)c(C(=O)O)s2)cc1-n1cnnn1` [compound 41, 2-[4-(4-fluoro-2-methylphenoxy)-3-(1H-1,2,3,4-tetrazol-1-yl)phenyl]-4-methyl-1,3-thiazole-5-carboxylic acid] the value was 1 to 5 nM; for `Cc1nc(-c2ccc(Oc3ccccc3)c(-n3cncn3)c2)sc1C(=O)O` [Compound No. 15], above 10 nM.
Consider `Cc1nc(-c2ccc(Oc3cccc(F)c3)c(-n3cnnn3)c2)sc1C(=O)O` [compound 37, 2-[4-(3-fluorophenoxy)-3-(1H-1,2,3,4-tetrazol-1-yl)phenyl]-4-methyl-1,3-thiazole-5-carboxylic acid], for which, in test [2], the IC50 is 1 to 5 nM.
